Measured values from patent US20260000642A1 (Tay Therapeutics Limited, priority 2022, published 2026).
One block for each molecule: values may come before it.

What was measured:
[1] = tested on: collagen-induced arthritis in Lewis rats; assay: Collagen-induced arthritis (CIA) model in rats: body weight, paw volume, clinical scores, clinical observations; details: for animals showing signs of disease (of 8) / Average animal paw volume percent change / Average detailed clinical score, left forelimb / Average detailed clinical score, left hind limb / Average detailed clinical score, right forelimb / Average detailed clinical score, right hind limb / Average detailed clinical score, score / Mean overall clinical score ± SD: CIA rats; for animals showing signs of disease (of 8): daily P.O.; for Mean animal paw volume (mL) ± SD: group mean, CIA + reference compound (Groups 3, 4); for Detailed Clinical Scores, left forelimb: key of the grades not given here; for Detailed Clinical Scores, left hind limb: key of the grades not given here; for Detailed Clinical Scores, right forelimb: key of the grades not given here; for Detailed Clinical Scores, right hind limb: key of the grades not given here; for Detailed Clinical Scores, score: key of the grades not given here
[2] = tested on: collagen-induced arthritis in Lewis rats; assay: CIA model: histopathologic analysis of H&E-stained hind limbs; type: in vivo, Lewis rat; details: CIA rats
Excerpt: Hind limbs were collected following euthanasia, with the left limb being used for H&E staining.
H&E-stained slides of designated tissues from animals were transferred to an independent pathologist for microscopic evaluation (SPFBio). Samples were assigned the histologic grades based on the severity of change from tissue where CIA was not induced. Histology grades assigned were as follows: grade 1 (minimal change), grade 2 (mild change), grade 3 (moderate change), grade 4 (marked change), and grade 5 (severe change).
Moderate inflammation was also associated with increased edema fluid, fibrin, and cellular debris. Marked mixed cell inflammation was characterized by dense, widespread accumulations of neutrophils and macrophages with lesser number of lymphocytes within one or more joint spaces, synovium and periarticular soft tissues. Marked inflammation was also associated with abundant edema fluid, fibrin, and cellular debris.
Marked granulation tissue (pannus) was associated with inflammation and was characterized by widespread fibrovascular connective tissue that expanded/replaced the periarticular soft tissues of one or more joints, extended into/expanded joint spaces, was contiguous with areas of erosion/ulcer in articular cartilage and/or increased eroded surface of bone, and variably extended along the diaphysis.
Instances of minimal increased eroded surface were not associated with fragments of bone contiguous and/or surrounded by granulation tissue. […] In some areas, increased eroded surfaces were contiguous with areas of erosion/ulcer in the articular cartilages. Instance of marked increased eroded surface were often associated with fragments of bone contiguous with and/or surrounded by granulation tissue.
This observation was typically most pronounced at joint margins (transition zone). The ulceration was often associated with inflammation and granulation tissue extending through the defect to the subchondral bone.
Marked increased periosteal bone (periosteal bone formation) was characterized by extensive areas of increased bone matrix and numerous prominent osteoblasts lining trabecular surfaces along the metaphysis and/or diaphysis of one or more bones. In some areas, increased periosteal bone was contiguous with increased eroded surface and/or erosion/ulcer at articular cartilage.

[3] = Sprague-Dawley rat pharmacokinetics (IV and PO); type: in vivo; details: male Sprague-Dawley rats, cassette mode, Method 1; for IV T1/2: IV 1 mg/kg; for PO F (%) / bioavailability: PO 5 mg/kg (IV 1 mg/kg); for bioavailability: rat, plasma, read-out: PO F (%)
Excerpt: BET protein inhibitors with a long half-life and good oral bioavailability in in vivo DMPK parameters are promising oral drug candidates. Some of the exemplary compounds of the current disclosure have a long half-life and good oral bioavailability in in vivo DMPK parameters in the Sprague-Dawley rat following intravenous (IV) and oral (PO) dosing. The experimental methods and results (Table 5) are provided hereinafter.
Sprague-Dawley Rat Pharmacokinetics, Method 1
Compounds were formulated in 5% DMSO, 40% PEG-400, 55% Milli-Q water at a concentration of 0.2 mg/mL for IV and at 0.5 mg/mL for PO. Two male Sprague-Dawley rats per arm were dosed with up to 5 compounds in cassette mode, which each compound being dosed at 1 mg/kg IV and 5 mg/kg PO. Blood was sampled at various timepoints and plasma isolated. 50 μL of plasma with 5 μL of blank Sprague-Dawley rat plasma were added to 200 μL of acetonitrile containing IS mixture. The samples were vortexed for 30 s. After centrifugation at 4 degrees Celsius, 3900 rpm for 15 min, the supernatant was diluted 3 times with water. 20 μL of diluted supernatant was injected into the LC/MS/MS system for quantitative analysis and concentration of analyte determined by comparison with matrix matched standard curve. WinNonlin (Phoenix™, version 8.3) or other similar software may be used for pharmacokinetic calculations.

SMILES: CNC(=O)c1cc(C(=O)NC2CC2)cn(Cc2ccccc2)c1=O [GSK620]
- animals showing signs of disease (of 8) ([1]; day 12): No animals
- animals showing signs of disease (of 8) ([1]; day 13): 1/8
- animals showing signs of disease (of 8) ([1]; day 14): 5/8
- animals showing signs of disease (of 8) ([1]; day 15): 7/8
- animals showing signs of disease (of 8) ([1]; day 18): all animals
- Detailed Clinical Scores, left forelimb ([1]; Day 0, CIA, per animal ID): 0
- Detailed Clinical Scores, left hind limb ([1]; Day 0, CIA, per animal ID): 0
- Detailed Clinical Scores, right forelimb ([1]; Day 0, CIA, per animal ID): 0
- Detailed Clinical Scores, right hind limb ([1]; Day 0, CIA, per animal ID): 0
- Detailed Clinical Scores, score ([1]; Day 0, CIA, per animal ID): 0
- Detailed Clinical Scores, left forelimb ([1]; Day 6, CIA, per animal ID): 0
- Detailed Clinical Scores, right forelimb ([1]; Day 6, CIA, per animal ID): 0
- Detailed Clinical Scores, left forelimb ([1]; Day 12, CIA, per animal ID): 0
- Detailed Clinical Scores, right forelimb ([1]; Day 12, CIA, per animal ID): 0
- erosion/ulcer in the articular cartilage ([2]; daily P.O. (Group 4)): mild to moderate
- granulation tissue (pannus) ([2]; daily P.O. (Group 4)): mild to moderate
- increased eroded surface of bone (bone resorption) ([2]; daily P.O. (Group 4)): minimal to moderate
- increased periosteal bone (periosteal bone formation) ([2]; daily P.O. (Group 4)): mild to moderate
- mixed cell inflammation ([2]; daily P.O. (Group 4)): moderate
- pathologic observations after microscopic evaluation (overall) ([2]; daily P.O. for 21 days): at a lower level relative to samples from animals in the CIA-induced group

SMILES: C[C@@H]1C[C@H]2[C@@H]3CCC4=CC(=O)C=C[C@]4(C)[C@@]3(F)[C@@H](O)C[C@]2(C)[C@@]1(O)C(=O)CO [Dex]
- Average animal paw volume percent change ([1]; Day 0, L hind paw): 0.00%
- Mean animal paw volume (mL) ± SD ([1]; Day 0, L paw): 1.33 mL
- Average animal paw volume percent change ([1]; Day 0, R hind paw): 0.00%
- Mean animal paw volume (mL) ± SD ([1]; Day 0, R paw): 1.33 mL
- Average detailed clinical score, left forelimb ([1]; Day 0): 0.00
- Average detailed clinical score, left hind limb ([1]; Day 0): 0.00
- Average detailed clinical score, right forelimb ([1]; Day 0): 0.00
- Average detailed clinical score, right hind limb ([1]; Day 0): 0.00
- Average detailed clinical score, score ([1]; Day 0): 0.00
- Mean overall clinical score ± SD ([1]; Day 0): 0 ± 0
- Mean animal paw volume (mL) ± SD ([1]; Day 6, L paw): 1.29 mL
- Mean animal paw volume (mL) ± SD ([1]; Day 6, R paw): 1.29 mL
- Average detailed clinical score, left forelimb ([1]; Day 6): 0.00
- Average detailed clinical score, left hind limb ([1]; Day 6): 0.00
- Average detailed clinical score, right forelimb ([1]; Day 6): 0.00
- Average detailed clinical score, right hind limb ([1]; Day 6): 0.00
- Average detailed clinical score, score ([1]; Day 6): 0.00
- Mean overall clinical score ± SD ([1]; Day 6): 0 ± 0
- Mean animal paw volume (mL) ± SD ([1]; Day 12, L paw): 1.27 mL
- Mean animal paw volume (mL) ± SD ([1]; Day 12, R paw): 1.26 mL
- Average detailed clinical score, left forelimb ([1]; Day 12): 0.00
- Average detailed clinical score, left hind limb ([1]; Day 12): 0.00
- Average detailed clinical score, right forelimb ([1]; Day 12): 0.00
- Average detailed clinical score, right hind limb ([1]; Day 12): 0.00
- Average detailed clinical score, score ([1]; Day 12): 0.00
- Mean overall clinical score ± SD ([1]; Day 12): 0 ± 0
- Mean animal paw volume (mL) ± SD ([1]; Day 13, L paw): 1.28 mL
- Mean animal paw volume (mL) ± SD ([1]; Day 13, R paw): 1.28 mL
- Average detailed clinical score, left forelimb ([1]; Day 13): 0.00
- Average detailed clinical score, left hind limb ([1]; Day 13): 0.00
- Average detailed clinical score, right forelimb ([1]; Day 13): 0.00
- Average detailed clinical score, right hind limb ([1]; Day 13): 0.00
- Average detailed clinical score, score ([1]; Day 13): 0.00
- Mean overall clinical score ± SD ([1]; Day 13): 0 ± 0
- Average animal paw volume percent change ([1]; Day 14, L hind paw): −4.60%
- Mean animal paw volume (mL) ± SD ([1]; Day 14, L paw): 1.27 mL
- Mean animal paw volume (mL) ± SD ([1]; Day 14, R paw): 1.26 mL
- Average detailed clinical score, left forelimb ([1]; Day 14): 0.00
- Average detailed clinical score, left hind limb ([1]; Day 14): 0.00
- Average detailed clinical score, right forelimb ([1]; Day 14): 0.00
- Average detailed clinical score, right hind limb ([1]; Day 14): 0.00
- Average detailed clinical score, score ([1]; Day 14): 0.00
- Mean overall clinical score ± SD ([1]; Day 14): 0 ± 0
- Mean animal paw volume (mL) ± SD ([1]; Day 15, L paw): 1.26 mL
- Mean animal paw volume (mL) ± SD ([1]; Day 15, R paw): 1.26 mL
- Average detailed clinical score, left forelimb ([1]; Day 15): 0.00
- Average detailed clinical score, left hind limb ([1]; Day 15): 0.00
- Average detailed clinical score, right forelimb ([1]; Day 15): 0.00
- Average detailed clinical score, right hind limb ([1]; Day 15): 0.00
- Average detailed clinical score, score ([1]; Day 15): 0.00
- Mean overall clinical score ± SD ([1]; Day 15): 0 ± 0
- Mean animal paw volume (mL) ± SD ([1]; Day 18, L paw): 1.29 mL
- Mean animal paw volume (mL) ± SD ([1]; Day 18, R paw): 1.29 mL
- Average detailed clinical score, left forelimb ([1]; Day 18): 0.00
- Average detailed clinical score, left hind limb ([1]; Day 18): 0.00
- Average detailed clinical score, right forelimb ([1]; Day 18): 0.00
- Average detailed clinical score, right hind limb ([1]; Day 18): 0.00
- Average detailed clinical score, score ([1]; Day 18): 0.00
- Mean overall clinical score ± SD ([1]; Day 18): 0 ± 0
- Mean animal paw volume (mL) ± SD ([1]; Day 19, L paw): 1.29 mL
- Mean animal paw volume (mL) ± SD ([1]; Day 19, R paw): 1.28 mL
- Average detailed clinical score, left forelimb ([1]; Day 19): 0.00
- Average detailed clinical score, left hind limb ([1]; Day 19): 0.00
- Average detailed clinical score, right forelimb ([1]; Day 19): 0.00
- Average detailed clinical score, right hind limb ([1]; Day 19): 0.00
- Average detailed clinical score, score ([1]; Day 19): 0.00
- Mean overall clinical score ± SD ([1]; Day 19): 0 ± 0
- Mean animal paw volume (mL) ± SD ([1]; Day 21, L paw): 1.28 mL
- Mean animal paw volume (mL) ± SD ([1]; Day 21, R paw): 1.29 mL
- Average detailed clinical score, left forelimb ([1]; Day 21): 0.00
- Average detailed clinical score, left hind limb ([1]; Day 21): 0.00
- Average detailed clinical score, right forelimb ([1]; Day 21): 0.00
- Average detailed clinical score, right hind limb ([1]; Day 21): 0.00
- Average detailed clinical score, score ([1]; Day 21): 0.00
- Mean overall clinical score ± SD ([1]; Day 21): 0 ± 0

SMILES: CCNC(=O)c1cc(OC(C)c2ccc(Cl)cc2)c(C(=O)NC)[nH]1 (single isomer, unassigned) [Example 18, 3-(1-(4-chlorophenyl)ethoxy)-N^5-ethyl-N^2-methyl-1H-pyrrole-2,5-dicarboxamide]
- IV T1/2 [3]: 66 min
- PO F (%) [3]: 30%

SMILES: CCNC(=O)c1cc(OC(C)c2ccccc2F)c(C(=O)NC)[nH]1 (single isomer, unassigned) [Example 20, N^5-ethyl-3-(1-(2-fluorophenyl)ethoxy)-N^2-methyl-1H-pyrrole-2,5-dicarboxamide]
- IV T1/2 [3]: 24 min
- PO F (%) [3]: 46%

Next, values leading:

- IV T1/2 [3]: 84 min
- PO F (%) [3]: 66%
SMILES: CNC(=O)c1[nH]c(C(=O)N[C@H]2CC[C@H](O)CC2)cc1OC(C)c1ccc(Cl)cc1F (single isomer, unassigned) [Example 38, 3-(1-(4-chloro-2-fluorophenyl)ethoxy)-N^5-(trans-4-hydroxycyclohexyl)-N^2-methyl-1H-pyrrole-2,5-dicarboxamide]

- IV T1/2 [3]: 18 min
- PO F (%) [3]: 69%
SMILES: CCNC(=O)c1cc(OC(C)c2ccc(Cl)cc2F)c(C(=O)NC)[nH]1 (single isomer, unassigned) [Example 41, 3-(1-(4-chloro-2-fluorophenyl)ethoxy)-N^5-ethyl-N^2-methyl-1H-pyrrole-2,5-dicarboxamide]

- bioavailability [3]: 13%
SMILES: CNC(=O)c1[nH]c(C(=O)NC2CCC2)cc1OC(C)c1ccccc1 (single isomer, unassigned) [Example 102, N^5-cyclobutyl-N^2-methyl-3-(1-phenylethoxy)-1H-pyrrole-2,5-dicarboxamide]

- bioavailability [3]: 31%
SMILES: CNC(=O)c1[nH]c(C(=O)N[C@H]2CC[C@H](O)CC2)cc1OC(C)c1ccccc1 (single isomer, unassigned) [Example 98, N^5-(trans-4-hydroxycyclohexyl)-N^2-methyl-3-(1-phenylethoxy)-1H-pyrrole-2,5-dicarboxamide]
